Activity calls are given as the source filed them. No cut-off for these calls is given here.
Assays:
MCF7 [1] = assay: Inhibition of PI3K in human MCF7 cells assessed as downregulation of phosphorylated Akt levels at 2 uM after 24 hrs by Western blot analysis; assay type: cell-based
LOX IMVI [2] = assay: Cytotoxicity against human LOXIMVI cells assessed as cell growth at 10 uM after 48 hrs by sulforhodamine B assay relative to control; assay type: functional; settings: read-out: Activity
HOP-92 [3] = assay: Cytotoxicity against human HOP92 cells assessed as cell growth at 100 uM after 48 hrs by sulforhodamine B assay relative to control; assay type: functional; settings: HOP-92, 48 h, read-out: Activity
MCF7 [4] = assay: Induction of apoptosis in human MCF7 cells assessed as early apoptotic cells at 2 uM after 24 hrs by Annexin-V FITC/propidium iodide staining-based FACS analysis (reference value: 0.5%); assay type: functional
LOX IMVI [5] = assay: Cytotoxicity against human LOXIMVI cells assessed as cell growth at 0.1 uM after 48 hrs by sulforhodamine B assay relative to control; assay type: functional; settings: read-out: Activity
HOP-92 [6] = assay: Cytotoxicity against human HOP92 cells assessed as cell growth at 1 uM after 48 hrs by sulforhodamine B assay relative to control; assay type: functional; settings: HOP-92, 48 h, read-out: Activity
HOP-92 [7] = assay: Cytotoxicity against human HOP92 cells assessed as cell growth at 10 uM after 48 hrs by sulforhodamine B assay relative to control; assay type: functional; settings: HOP-92, 48 h, read-out: Activity
MCF7 [8] = assay: Downregulation of Akt1 mRNA expression in human MCF7 cells at 2 uM after 48 hrs by qRT-PCR analysis; assay type: functional, cell-based
LOX IMVI [9] = assay: Cytotoxicity against human LOXIMVI cells assessed as cell growth at 0.01 uM after 48 hrs by sulforhodamine B assay relative to control; assay type: functional; settings: read-out: Activity
NCI-H322M = assay: Cytotoxicity against human NCI-H322M cells assessed as cell growth at 10 uM after 48 hrs by sulforhodamine B assay relative to control; assay type: functional; settings: read-out: Activity
OVCAR-8 = assay: Cytotoxicity against human OVCAR8 cells assessed as growth inhibition after 48 hrs by sulforhodamine B assay; assay type: functional; settings: OVCAR-8, 48 h
LOX IMVI [10] = assay: Cytotoxicity against human LOXIMVI cells assessed as cell growth at 100 uM after 48 hrs by sulforhodamine B assay relative to control; assay type: functional; settings: read-out: Activity
HOP-92 [11] = assay: Cytotoxicity against human HOP92 cells assessed as growth inhibition after 48 hrs by sulforhodamine B assay; assay type: functional; settings: HOP-92, 48 h
CAKI-1 [12] = assay: Cytotoxicity against human Caki1 cells assessed as cell growth at 100 uM after 48 hrs by sulforhodamine B assay relative to control; assay type: functional; settings: CAKI-1, 48 h, read-out: Activity
CAKI-1 [13] = assay: Cytotoxicity against human Caki1 cells assessed as cell growth at 10 uM after 48 hrs by sulforhodamine B assay relative to control; assay type: functional; settings: CAKI-1, 48 h, read-out: Activity
SK-MEL-2 [14] = assay: Cytotoxicity against human SK-MEL-2 cells assessed as cell growth at 1 uM after 48 hrs by sulforhodamine B assay relative to control; assay type: functional; settings: SK-MEL-2, 48 h, read-out: Activity
MCF7 [15] = assay: Cell cycle arrest in human MCF7 cells assessed as accumulation at G0/G1 phase at 2 uM after 24 hrs by flow cytometric analysis (reference value: 18.4%); assay type: functional
CAKI-1 [16] = assay: Cytotoxicity against human Caki1 cells assessed as cell growth at 1 uM after 48 hrs by sulforhodamine B assay relative to control; assay type: functional; settings: CAKI-1, 48 h, read-out: Activity
CAKI-1 [17] = assay: Cytotoxicity against human Caki1 cells assessed as cell growth at 0.01 uM after 48 hrs by sulforhodamine B assay relative to control; assay type: functional; settings: CAKI-1, 48 h, read-out: Activity
SK-MEL-2 [18] = assay: Cytotoxicity against human SK-MEL-2 cells assessed as cell growth at 10 uM after 48 hrs by sulforhodamine B assay relative to control; assay type: functional; settings: SK-MEL-2, 48 h, read-out: Activity
HOP-92 [19] = assay: Cytotoxicity against human HOP92 cells assessed as cell growth at 0.1 uM after 48 hrs by sulforhodamine B assay relative to control; assay type: functional; settings: HOP-92, 48 h, read-out: Activity
HOP-92 [20] = assay: Cytotoxicity against human HOP92 cells assessed as cell growth at 0.01 uM after 48 hrs by sulforhodamine B assay relative to control; assay type: functional; settings: HOP-92, 48 h, read-out: Activity
SK-MEL-2 [21] = assay: Cytotoxicity against human SK-MEL-2 cells assessed as cell growth at 0.01 uM after 48 hrs by sulforhodamine B assay relative to control; assay type: functional; settings: SK-MEL-2, 48 h, read-out: Activity
CAKI-1 [22] = assay: Cytotoxicity against human Caki1 cells assessed as growth inhibition after 48 hrs by sulforhodamine B assay; assay type: functional; settings: CAKI-1, 48 h
CAKI-1 [23] = assay: Cytotoxicity against human Caki1 cells assessed as cell growth at 0.1 uM after 48 hrs by sulforhodamine B assay relative to control; assay type: functional; settings: CAKI-1, 48 h, read-out: Activity
SK-MEL-2 [24] = assay: Cytotoxicity against human SK-MEL-2 cells assessed as cell growth at 100 uM after 48 hrs by sulforhodamine B assay relative to control; assay type: functional; settings: SK-MEL-2, 48 h, read-out: Activity
LOX IMVI [25] = assay: Cytotoxicity against human LOXIMVI cells assessed as cell growth at 1 uM after 48 hrs by sulforhodamine B assay relative to control; assay type: functional; settings: read-out: Activity
MCF7 [26] = assay: Downregulation of Bcl-2 mRNA expression in human MCF7 cells at 2 uM after 48 hrs by qRT-PCR analysis; assay type: functional, cell-based
SK-MEL-2 [27] = assay: Cytotoxicity against human SK-MEL-2 cells assessed as cell growth at 0.1 uM after 48 hrs by sulforhodamine B assay relative to control; assay type: functional; settings: SK-MEL-2, 48 h, read-out: Activity
SF-295 [28] = assay: Cytotoxicity against human SF295 cells assessed as cell growth at 0.1 uM after 48 hrs by sulforhodamine B assay relative to control; assay type: functional; settings: SF-295, 48 h, read-out: Activity
SNB-75 [29] = assay: Cytotoxicity against human SNB75 cells assessed as cell growth at 1 uM after 48 hrs by sulforhodamine B assay relative to control; assay type: functional; settings: SNB-75, 48 h, read-out: Activity
SF-295 [30] = assay: Cytotoxicity against human SF295 cells assessed as growth inhibition after 48 hrs by sulforhodamine B assay; assay type: functional; settings: SF-295, 48 h
SNB-75 [31] = assay: Cytotoxicity against human SNB75 cells assessed as cell growth at 0.01 uM after 48 hrs by sulforhodamine B assay relative to control; assay type: functional; settings: SNB-75, 48 h, read-out: Activity
SF-295 [32] = assay: Cytotoxicity against human SF295 cells assessed as cell growth at 1 uM after 48 hrs by sulforhodamine B assay relative to control; assay type: functional; settings: SF-295, 48 h, read-out: Activity
SF-295 [33] = assay: Cytotoxicity against human SF295 cells assessed as cell growth at 0.01 uM after 48 hrs by sulforhodamine B assay relative to control; assay type: functional; settings: SF-295, 48 h, read-out: Activity
SNB-75 [34] = assay: Cytotoxicity against human SNB75 cells assessed as cell growth at 10 uM after 48 hrs by sulforhodamine B assay relative to control; assay type: functional; settings: SNB-75, 48 h, read-out: Activity
SNB-75 [35] = assay: Cytotoxicity against human SNB75 cells assessed as cell growth at 100 uM after 48 hrs by sulforhodamine B assay relative to control; assay type: functional; settings: SNB-75, 48 h, read-out: Activity
SNB-75 [36] = assay: Cytotoxicity against human SNB75 cells assessed as growth inhibition after 48 hrs by sulforhodamine B assay; assay type: functional; settings: SNB-75, 48 h
SNB-75 [37] = assay: Cytotoxicity against human SNB75 cells assessed as cell growth at 0.1 uM after 48 hrs by sulforhodamine B assay relative to control; assay type: functional; settings: SNB-75, 48 h, read-out: Activity
SF-295 [38] = assay: Cytotoxicity against human SF295 cells assessed as cell growth at 100 uM after 48 hrs by sulforhodamine B assay relative to control; assay type: functional; settings: SF-295, 48 h, read-out: Activity

COc1cc(C(=O)/C=C/c2cc(-c3cc(OC)c(OC)c(OC)c3)n[nH]2)cc(OC)c1OC
phospho-Akt downregulation (active/inactive) (MCF7 [1]): Active
growth at 10 µM (LOX IMVI [2]): -95%
growth at 100 µM (HOP-92 [3]): -95%
Activity (MCF7 [4]): 3.1%
growth at 0.1 µM (LOX IMVI [5]): 101%
growth at 1 µM (HOP-92 [6]): 1%
growth at 10 µM (HOP-92 [7]): -67%
Activity (MCF7 [8]): Active
growth at 0.01 µM (LOX IMVI [9]): 102%
growth at 10 µM (NCI-H322M): -41%
LC50 (OVCAR-8): 6.81 µM
TGI (OVCAR-8): 3.28 µM
growth at 100 µM (LOX IMVI [10]): -95%
TGI (HOP-92 [11]): 1.02 µM
CC50 (HOP-92 [11]; read-out: LC50 (the source's name)): 5.54 µM
growth at 100 µM (CAKI-1 [12]): -94%
growth at 10 µM (CAKI-1 [13]): 4%
growth at 1 µM (SK-MEL-2 [14]): 97%
Activity (MCF7 [15]): 16.6%
growth at 1 µM (CAKI-1 [16]): 82%
growth at 0.01 µM (CAKI-1 [17]): 91%
growth at 10 µM (SK-MEL-2 [18]): -63%
growth at 0.1 µM (HOP-92 [19]): 68%
growth at 0.01 µM (HOP-92 [20]): 86%
growth at 0.01 µM (SK-MEL-2 [21]): 104%
LC50 (CAKI-1 [22]): 35.5 µM
TGI (CAKI-1 [22]): 10.9 µM
growth at 0.1 µM (CAKI-1 [23]): 89%
growth at 100 µM (SK-MEL-2 [24]): -96%
growth at 1 µM (LOX IMVI [25]): 82%
Activity (MCF7 [26]): Active
growth at 0.1 µM (SK-MEL-2 [27]): 111%

COc1cc(C(=O)/C=C/c2cc(-c3ccc4c(c3)OCO4)n[nH]2)cc(OC)c1OC
phospho-Akt downregulation (active/inactive) (MCF7 [1]): Active
growth at 0.1 µM (SF-295 [28]): 95%
Activity (MCF7 [4]): 0.7%
growth at 1 µM (SNB-75 [29]): 90%
Activity (MCF7 [8]): Active
growth at 10 µM (NCI-H322M): -22%
GI50 (SF-295 [30]): 2.58 µM
LC50 (SF-295 [30]): 36.4 µM
TGI (SF-295 [30]): 10.1 µM
growth at 0.01 µM (SNB-75 [31]): 85%
growth at 1 µM (SF-295 [32]): 85%
GI50 (OVCAR-8): 2.35 µM
LC50 (OVCAR-8): 24.8 µM
TGI (OVCAR-8): 6.37 µM
growth at 100 µM (CAKI-1 [12]): -82%
growth at 10 µM (CAKI-1 [13]): -27%
growth at 0.01 µM (SF-295 [33]): 93%
Activity (MCF7 [15]): 35.4%
growth at 1 µM (CAKI-1 [16]): 83%
growth at 10 µM (SNB-75 [34]): -14%
growth at 0.01 µM (CAKI-1 [17]): 96%
growth at 100 µM (SNB-75 [35]): -100%
GI50 (SNB-75 [36]): 2.4 µM
LC50 (concentration killing 50% of cells) (SNB-75 [36]): 26.1 µM
TGI (SNB-75 [36]): 7.27 µM
growth at 0.1 µM (SNB-75 [37]): 87%
GI50 (CAKI-1 [22]): 1.99 µM
LC50 (CAKI-1 [22]): 26.1 µM
TGI (CAKI-1 [22]): 5.65 µM
growth at 0.1 µM (CAKI-1 [23]): 97%
Activity (MCF7 [26]): Active
growth at 100 µM (SF-295 [38]): -89%
